Assay results as given in patent US4483853A, “Amino acid isomers, their production and their medicinal use” (priority 1981, dated 1984).
Read-outs that look alike come from different tables or passages of the source.

Legend:
sound-induced seizures = experiment: Sound-induced (audiogenic) seizures in DBA/2 mice, i.c.v. or i.p. (WR, clonus, tonus); type: in vivo; conditions: for order of potency: congeneric series of phosphonic acid analogues, i.c.v. DBA/2 mice; for Minimum dose to suppress WR / ED50 Clonus / ED50 Tonus / ED50 WR / activity (in words): i.c.v., DBA/2 mice; for Minimum dose to suppress WR: 45 minutes before sound, P < .01; for ED50 WR: wild running phase
Experimental: (§1) Dicarboxylic amino acids and their thio-analogues were tested as potential anticonvulsants in animal models of epilepsy by being administered intracerebroventricularly (i.c.v.) or intraperitoneally (i.p.) in mice (either DBA/2 mice showing sound-induced seizures, or Swiss S mice given a just-convulsant dose of pentylenetetrazol, s.c.) or intravenously in baboons, Papio papio, with photosensitive epilepsy. A close correlation was found between the ability of antagonists to block excitation due to NMDA (N-methyl-D-aspartic acid) and suppression of sound-induced seizures following i.c.v. injection in DBA/2 mice. […] Following systemic administration in mice 2-amino-7-phosphonoheptanoic acid was active against sound-induced seizures (0.1-0.33 mmoles/kg, i.p.) and against pentylenetetrazol seizures (1.2 mmoles/kg). It is also active against photosensitive epileptic responses in baboons (1.0 mmoles/kg, i.v.)
(i) Anticonvulsant activity of excitatory amino acid antagonists in DBA/2 mice
DBA/2 mice were chosen as being an inbred strain in which, within a critical age range, a fixed sequence of seizure response can be induced by a loud sound. Groups of DBA/2 mice (N=6 to 10), 21 to 28 days old, were injected intracerebroventricularly under light ether anesthesia with 10 μl of drug solution or phosphate buffer alone (pH 7.3). Auditory stimulation (electric bell generating 109 dB at mouse level) was applied 45 minutes later for 60 seconds or until tonic extension was observed and the incidence and timing of the phases of the seizure response were recorded. These included an initial wild running phase (WR) followed by myocolonus, tonic flexion, and extension and, frequently, respiratory arrest. Seizure response was scored as described in Eur. J. Pharmacol 59, 75 (1979), and comparisons between groups of control and drug-treated animals were made by using Fisher's exact probability test. Successive doses, with a geometric factor of 3, were tested until an adequate log dose-response curve (three to six points) could be constructed for each antagonist for each phase of the seizure response, and ED50 values were graphically determined. A rank order of anticonvulsant potency was allocated to each antagonist for comparison with iontophoretic data; O denoting no activity and X to XXXX denoting increasingly marked activity.
(§2) Studies of audiogenic seizures were performed as described in Example(i). For intraperitoneal administration the antagonist was injected with 0.1 ml of saline 45 minutes before testing. Antagonism of pentylenetetrazol (PTZ: threshold) seizures was studied in random-bred Swiss mice (Tuck T/O strain: 28 days old; 20 to 23 g). Mice in groups (N=10) received pentylenetetrazol (85 mg/kg: 0.85 percent solution in 0.9 percent sodium chloride) subcutaneously in a loose fold of skin on the back of the neck 45 minutes after intracerenroventricular or intraperitoneal administration of drug or vehicle. During the 30-minute observation period sustained rhythmic clonic jerking with tonic spasms occured in 90 to 100 percent of control mice. The incidence and timing of clonic episodes was recorded with absence of sustained clonic jerking (no episode of 5 seconds duration or longer) being defined as protection. The ED50 values and 95 percent fiducial limits were estimated by using the method of moving averages (by the method described in Biometrics 8, 249 (1952) with data from four successive dose levels.

[1] = test system: ibotenic acid-excited receptors; experiment: Block of ibotenic acid-excited receptors; conditions: CNS receptors
[2] = test system: Kainic acid-excited receptors; experiment: Block of kainic acid-excited receptors; conditions: CNS receptors
quisqualate receptor = conditions: cited from earlier work
[3] = test system: pentylenetetrazol seizures; experiment: Pentylenetetrazol-induced seizures in Swiss S mice; type: in vivo
Experimental: as §1, §2

[4] = test system: photosensitive epileptic responses; experiment: Photosensitive epilepsy in baboons; type: in vivo, Papio papio; conditions: i.v.
Experimental: as §1

NMDA = conditions: cited from earlier work
[5] = test system: kainate-induced excitation; conditions: cited from earlier work

Row | Structure (SMILES) | order of potency (sound-induced seizures) | Minimum dose to suppress WR (sound-induced seizures) [μ mole] | ED50 Clonus (sound-induced seizures) [μ mole] | ED50 Tonus (sound-induced seizures) [μ mole] | ED50 WR (sound-induced seizures) [μ mole] | further results
1 | NC(CCCP(=O)(O)O)C(=O)O (racemic) [(±)-2-Amino-5-phosphonopentanoic acid] | 2-amino-7-phosphonoheptanoate>2-amino-5-phosphonopentanoic acid>2-amino-6-phosphonohexanoic acid>2-amino-4-phosphonobutyric acid | 0.1 | 0.022 | 0.025 | 0.046 | –
2 | N[C@H](CCCCCP(=O)(O)O)C(=O)O [(-)-2-Amino-7-phosphonoheptanoic acid] | – | 0.0033 | 0.0008 | 0.0008 | 0.0022 | blocking of ibotenic acid-excited receptors [1]: blocker of ibotenic acid-excited receptors; blocking of Kainic acid-excited receptors [2]: not a blocker of Kainic acid-excited receptors
3 | CCOC(=O)CC[C@H](N)C(=O)OCC [Glutamic acid diethylester, reference compound] | – | – | – | – | – | activity (in words) (sound-induced seizures): inactive; quisqualate receptor antagonism (quisqualate receptor): quisqualate receptor antagonist
4 | NC(CCP(=O)(O)O)C(=O)O (racemic) [(±)-2-Amino-4-phosphonobutyric acid, reference compound] | 2-amino-7-phosphonoheptanoate>2-amino-5-phosphonopentanoic acid>2-amino-6-phosphonohexanoic acid>2-amino-4-phosphonobutyric acid | – | – | – | – | –
5 | NC(CCCCCP(=O)(O)O)C(=O)O (racemic) [(±)-2-Amino-7-phosphonoheptanoic acid, (±)2-amino-7-phosphonoheptanoic acid] | 2-amino-7-phosphonoheptanoate>2-amino-5-phosphonopentanoic acid>2-amino-6-phosphonohexanoic acid>2-amino-4-phosphonobutyric acid | 0.01 | – | 0.0008 | 0.004 | minimal effective dose (sound-induced seizures; Mus musculus, ip, 0.75 h, read-out: Minimum dose to suppress WR): 330 µmol/kg; ED50 (sound-induced seizures; Mus musculus, ip, read-out: ED50 Clonus): 40 µmol/kg; ED50 (sound-induced seizures; Mus musculus, ip, read-out: ED50 Tonus): 40 µmol/kg; ED50 (sound-induced seizures; Mus musculus, ip, read-out: ED50 WR): 180 µmol/kg; active against sound-induced seizures, dose (sound-induced seizures; mice, i.p.): 0.1 to 0.33 mmol/kg; ED50 ([3]; Mus musculus, ip, intraperitoneal, pentylenetetrazol 85 mg/kg s.c., read-out: ED50 V PTZ (95% fiducial limits)): 1180 µmol/kg; ED50 V PTZ (95% fiducial limits) ([3]; intracerebroventricular, pentylenetetrazol 85 mg/kg s.c.): 0.64 (0.19-2.13) μ mole; active against pentylenetetrazol seizures, dose ([3]; mice, systemic administration): 1.2 mmol/kg; active against photosensitive epileptic responses, dose [4]: 1.0 mmol/kg
6 | NC(CCCCCP(=O)(O)O)C(=O)O (single isomer, unassigned; (+)) [(+)-2-Amino-7-phosphonoheptanoic acid] | – | 0.033 | 0.0018 | 0.0018 | 0.0135 | –
7 | NC(CCCCP(=O)(O)O)C(=O)O (racemic) [(±)-2-Amino-6-phosphonohexanoic acid] | 2-amino-7-phosphonoheptanoate>2-amino-5-phosphonopentanoic acid>2-amino-6-phosphonohexanoic acid>2-amino-4-phosphonobutyric acid | 0.25 | 0.14 | 0.15 | 0.17 | –
8 | N[C@H](CCC(=O)NCC(=O)O)C(=O)O [γ-D-Glutamylglycine, reference compound] | – | 0.1 | 0.046 | 0.054 | 0.058 | activity (in words) (sound-induced seizures): equipotent with 2-amino-5-phosphonoheptanoic acid; antagonism of NMDA-induced excitation (NMDA): antagonist of both kainate and NMDA-induced excitation; antagonism of kainate-induced excitation [5]: antagonist of both kainate and NMDA-induced excitation
